Columns and labels:
[1] = Determination of pKa of formulated lipids (TNS fluorescence assay in lipid nanoparticles); assay type: physicochemical; details: lipid formulated in LNP, 47.5% cationic lipid/10% DSPC/40.8% Cholesterol/1.7% PEG lipid
Method: As described elsewhere, the pKa of formulated lipids is correlated with the effectiveness of LNPs for delivery of nucleic acids (see Jayaraman et al, Angewandte Chemie, International Edition (2012), 51(34), 8529-8533; Semple et al, Nature Biotechnology 28, 172-176 (2010)). The preferred range of pKa is ˜5 to ˜7. The pKa of each lipid was determined in lipid nanoparticles using an assay based on fluorescence of 2-(p-toluidino)-6-napthalene sulfonic acid (TNS). Lipid nanoparticles comprising novel lipid or structure (I) or (II)/DSPC/cholesterol/PEG-lipid (50/10/38.5/1.5 or 47.5:10:40.8:1.7 mol %) in PBS at a concentration of 0.4 mM total lipid are prepared using the in-line process as described in Example 1. TNS was prepared as a 100 μM stock solution in distilled water. Vesicles were diluted to 24 μM lipid in 2 mL of buffered solutions containing 10 mM HEPES, 10 mM MES, 10 mM ammonium acetate, and 130 mM NaCl, where the pH ranged from 2.5 to 11. An aliquot of the TNS solution was added to give a final concentration of 1 μM and following vortex mixing fluorescence intensity was measured at room temperature in a SLM Aminco Series 2 Luminescence Spectrophotometer using excitation and emission wavelengths of 321 nm and 445 nm. A sigmoidal best fit analysis was applied to the fluorescence data and the pKa was measured as the pH giving rise to half-maximal fluorescence intensity.
(§1) Tables 3 and 4 provide properties of representative compounds of structure (I) and (II), respectively, which were formulated using the following molar ratio: 47.5% cationic lipid/10% distearoylphosphatidylcholine (DSPC)/40.8% Cholesterol/1.7% PEG lipid (“PEG-DMA” 2-[2-(ω-methoxy(polyethyleneglycol2000)ethoxy]-N,N-ditetradecylacetamide). Relative activity was determined by measuring luciferase expression in the liver 4 hours following administration via tail vein injection as described in Example 1. The activity was compared at a dose of 0.3 and 1.0 mg mRNA/kg and expressed as ng luciferase/g liver measured 4 hours after administration, as described in Example 1.

[2] = test system: luciferase expression in the liver; assay: Luciferase mRNA in vivo evaluation using lipid nanoparticle compositions; parameters: species or system mice; details: tail vein injection, liver 4 hours after administration, LNP 47.5/10/40.8/1.7; for Liver Luc @ 0.3 mg/kg (ng luc/g liver): 0.3 mg mRNA/kg; for Liver Luc @ 1.0 mg/kg (ng luc/g liver): 1.0 mg mRNA/kg
Method: A lipid of structure (I) or (II), DSPC, cholesterol and PEG-lipid were solubilized in ethanol at a molar ratio of 50:10:38.5:1.5 or 47.5:10:40.8:1.7. Lipid nanoparticles (LNP) were prepared at a total lipid to mRNA weight ratio of approximately 10:1 to 30:1. Briefly, the mRNA was diluted to 0.2 mg/mL in 10 to 50 mM citrate buffer, pH 4. Syringe pumps were used to mix the ethanolic lipid solution with the mRNA aqueous solution at a ratio of about 1:5 to 1:3 (vol/vol) with total flow rates above 15 mL/min. The ethanol was then removed and the external buffer replaced with PBS by dialysis. Finally, the lipid nanoparticles were filtered through a 0.2 µm pore sterile filter.
Studies were performed in 6-8 week old female C57BL/6 mice (Charles River) 8-10 week old CD-1 (Harlan) mice (Charles River) according to guidelines established by an institutional animal care committee (ACC) and the Canadian Council on Animal Care (CCAC). Varying doses of mRNA-lipid nanoparticle were systemically administered by tail vein injection and animals euthanized at a specific time point (e.g., 4 hours) post-administration. Liver and spleen were collected in pre-weighed tubes, weights determined, immediately snap frozen in liquid nitrogen and stored at −80° C. until processing for analysis.
For liver, approximately 50 mg was dissected for analyses in a 2 mL FastPrep tubes (MP Biomedicals, Solon Ohio). ¼″ ceramic sphere (MP Biomedicals) was added to each tube and 500 μL of Glo Lysis Buffer—GLB (Promega, Madison WI) equilibrated to room temperature was added to liver tissue. Liver tissues were homogenized with the FastPrep24 instrument (MP Biomedicals) at 2×6.0 m/s for 15 seconds. Homogenate was incubated at room temperature for 5 minutes prior to a 1:4 dilution in GLB and assessed using SteadyGlo Luciferase assay system (Promega). Specifically, 50 μL of diluted tissue homogenate was reacted with 50 μL of SteadyGlo substrate, shaken for 10 seconds followed by 5 minute incubation and then quantitated using a CentroXS^3 LB 960 luminometer (Berthold Technologies, Germany). The amount of protein assayed was determined by using the BCA protein assay kit (Pierce, Rockford, IL). Relative luminescence units (RLU) were then normalized to total μg protein assayed. To convert RLU to ng luciferase a standard curve was generated with QuantiLum Recombinant Luciferase (Promega).
The FLuc mRNA (L-6107) from Trilink Biotechnologies will express a luciferase protein, originally isolated from the firefly, photinus pyralis. FLuc is commonly used in mammalian cell culture to measure both gene expression and cell viability. It emits bioluminescence in the presence of the substrate, luciferin. This capped and polyadenylated mRNA is fully substituted with 5-methylcytidine and pseudouridine.
as §1

SMILES | pKa ([1]; structure (II) compounds) | Liver Luc @ 0.3 mg/kg (ng luc/g liver) ([2]; structure (II) compounds) | Liver Luc @ 1.0 mg/kg (ng luc/g liver) ([2]; structure (II) compounds) | pKa ([1]; structure (I) compounds) | Liver Luc @ 0.3 mg/kg (ng luc/g liver) ([2]; structure (I) compounds) | Liver Luc @ 1.0 mg/kg (ng luc/g liver) ([2]; structure (I) compounds)
CCCCCCCCC(CCCCCC)COC(=O)CCCCCCCN(CCCCCCCC(=O)OCC(CCCCCC)CCCCCCCC)CCCCN(C)C(C)=O (stereo not shown) [II-5] | 6.8 | 146 ± 16 | 695 ± 278 | – | – | –
CCCCCCCCCN(CCO)C(=O)CCCCN(CCCCCC(=O)OCC(CCCCCC)CCCCCCCC)CCCCCC(=O)OCC(CCCCCC)CCCCCCCC (stereo not shown) [Compound I-6] | – | – | – | 6.32 | 580 ± 209 | 3290 ± 582
CCCCCCCCC(CCCCCC)COC(=O)CCCCCCCN(CCCCCCCC(=O)OCC(CCCCCC)CCCCCCCC)CCCCC(=O)N(CC)CC (stereo not shown) [Compound I-11] | – | – | – | 5.89 | 228 ± 101 | 910 ± 454
CCCCCCCCC(CCCCCC)COC(=O)CCCCCN(CCCCCC(=O)OCC(CCCCCC)CCCCCCCC)CCCN(CCCO)C(=O)CCCCCCC (stereo not shown) [II-16] | 6.08 | 93 ± 38 | 1312 ± 569 | – | – | –
CCCCCCCC(=O)N(C)CCCN(CCCCCC(=O)OCC(CCCC)CCCCCC)CCCCCC(=O)OCC(CCCC)CCCCCC (stereo not shown) [II-14] | 5.63 | 128 ± 17 | 827 ± 537 | – | – | –
CCCCCCCCC(CCCCCC)COC(=O)CCCCCN(CCCCCC(=O)OCC(CCCCCC)CCCCCCCC)CCCCNC(=O)CCCCCCC (stereo not shown) [II-4] | 5.95 | 150 ± 59 | 1405 ± 306 | – | – | –
CCCCCCCCC(CCCCCC)COC(=O)CCCCCCCN(CCCCCCCC(=O)OCC(CCCCCC)CCCCCCCC)CCCCC(=O)N(CCCO)CCCCCCCC (stereo not shown) [Compound I-12] | – | – | – | 6.01 | 413 ± 143 | 4002 ± 1573
CCCCCCCCNC(=O)CCCCN(CCCCCC(=O)OCC(CCCCCC)CCCCCCCC)CCCCCC(=O)OCC(CCCCCC)CCCCCCCC (stereo not shown) [Compound I-3] | – | – | – | 5.99 | 139 ± 43 | 1711 ± 507
CCCCCCCCC(CCCCCC)COC(=O)CCCCCN(CCCCCC(=O)OCC(CCCCCC)CCCCCCCC)CCCCC(=O)O (stereo not shown) [Compound I-2] | – | – | – | 5.57 | – | –

From patent US11820728B2, “Carbonyl lipids and lipid nanoparticle formulations for delivery of nucleic acids” (Acuitas Therapeutics, Inc., priority 2017, dated 2023)
